Experimental data from patent US20050084468A1, “Antimicrobial cleaning composition” (Colgate-Palmolive Company, priority 2003, published 2005).

Key:
Assay type in all cases: cell-based
[1] = tested on: wild germs from hand's volunteers (mainly Staphylococcus epidermitis); assay: Lasting antibacterial protection, stronger rinsing with water
Description: (§1) Ceramic tiles are treated with 200 μl of the solutions to test; untreated tiles are used as reference. After overnight drying of the treatment, tiles are rinsed with 2×10 ml deionized water and let dry for 1 hour. Tiles are then inoculated in the horizontal position for 5 hours with 200 μl of a suspension of wild germs from hand's volunteers (mainly Staphylococcus epidermitis). After rinsing of the surface with 2×10 ml sterile tap water to remove the germs source, the contamination of the surface is determined by direct imprint with Tryptic Soy Agar plates (a nutritive gelified support). Colony forming units (=cfu=microorganisms) are counted after 48 hours incubation at RT.
Stronger Rinsing with Water:
Methodology is the same as described under example II but rinsing is operated either with 2×10 ml or 5×10 ml water or with a tap water shower head during 30 sec.

[2] = tested on: wild germs from hand's volunteers (mainly Staphylococcus epidermitis); assay: Lasting antibacterial protection of the surface (treated ceramic tiles, imprint cfu count); details: tiles rinsed 2×10 ml deionized water; inoculated 5 hours; counted after 48 hours at RT
Description: as §1, with “Measure” for “Ceramic tiles are treated with 200 μl”, “Lasting Antibacterial Protection of the Surface […]” for “solutions to test; untreated tiles are used as reference.”, “[…]).” for “epidermitis).”

[3] = tested on: wild germs from hand's volunteers (mainly Staphylococcus epidermitis); assay: Lasting antibacterial protection, PHMB-Mucin in surfactant solutions; details: surfactant solution alone (NO PHMB-Mucin), 2.5% AI in water
Description: as §1
PHMB-Mucin in Surfactant Solutions
Test methodology is described under example II. We considered nonionic surfactants (Neodols), anionics (SLS, PS), and amphoteric (CAPB) at 2.5% Al in water. The mixture is Neodol 91-8 1.25%, Neodol 91-5 0.25%, CAPB 0.45%, PS 0.5%.

[4] = rinsing tap water shower head 30 sec.

In the case of mucin [Mucin 0.03%], the “cfu/ceramic tile average on 3 replicates” value ([1]; rinsing 2 × 10 ml water) is reported as 37 ± 3 cfu/ceramic tile, the “cfu/ceramic tile average on 3 replicates” value ([1]; rinsing 5 × 10 ml water) is reported as 118 ± 43 cfu/ceramic tile and the “cfu/ceramic tile average on 3 replicates” value [1, 4] is reported as 145 ± 8 cfu/ceramic tile. The “Cfu/ceramic tile Average on 3 replicates” value [2] was 110 ± 18 Cfu/ceramic tile.

In the case of mucin [Mucin 0.1%], the “cfu/ceramic tile average on 3 replicates” value ([1]; rinsing 2 × 10 ml water) is reported as 50 ± 19 cfu/ceramic tile, the “cfu/ceramic tile average on 3 replicates” value ([1]; rinsing 5 × 10 ml water) is reported as 129 ± 36 cfu/ceramic tile and the “cfu/ceramic tile average on 3 replicates” value [1, 4] is reported as 149 ± 5 cfu/ceramic tile. The “Cfu/ceramic tile Average on 3 replicates” value [2] was 82 ± 15 Cfu/ceramic tile.

For CCCCCCCCCCCCOS(=O)(=O)[O-].[Na+] [SLS, sodium lauryl sulfate], the “cfu/tile - average on 3 replicates” value ([3]; series of PHMB 0.06%-Mucin 0.03%) was 277 ± 34 cfu/tile and the “cfu/tile - average on 3 replicates” value ([3]; series of PHMB 0.09%-Mucin 0.05%) was 77 ± 25 cfu/tile.

With mucin [Mucin 0.05%] the “cfu/ceramic tile average on 3 replicates” value ([1]; rinsing 2 × 10 ml water) was 26 ± 7 cfu/ceramic tile, the “cfu/ceramic tile average on 3 replicates” value ([1]; rinsing 5 × 10 ml water) was 98 ± 23 cfu/ceramic tile and the “cfu/ceramic tile average on 3 replicates” value [1, 4] was 72 ± 17 cfu/ceramic tile. For the same compound, the “Cfu/ceramic tile Average on 3 replicates” value [2] was 68 ± 12 Cfu/ceramic tile.
